Measured values as given in patent US7511044B2, “Vanilloid receptor ligands and their use in treatments” (Amgen Inc., priority 2004, dated 2009).

SMILES	melting point [°C]
CC(=O)Nc1nc2c(Oc3cc(N4CCN(C(C)c5ccccc5F)CC4)ncn3)cccc2s1 (racemic) [Example 1, N-[4-(6-{4-[(1S,1R)-1-(2-Fluoro-phenyl)-ethyl]-piperazin-1-yl}-pyrimidin-4-yloxy)-benzothiazol-2-yl]-acetamide]	202.6 to 204.3
CC(=O)Nc1nc2c(Oc3cc(N4CCN(C(C)c5ccc(F)cc5)CC4)ncn3)cccc2s1 (racemic) [Example 2, N-[4-(6-{4-[(1S,1R)-1-(4-Fluoro-phenyl) -ethyl]-piperazine1-yl}-pyrimidin-4-yloxy)-benzothiazol-2-yl]-acetamide]	247.3
CC(=O)Nc1nc2c(Oc3cc(N4CCN([C@@H](C)c5ccc(F)cc5)CC4)ncn3)cccc2s1 [Example 21, N-[4-(6-{4-[(1S)-1-(4-Fluoro-phenyl)-ethyl]-piperazine 1-yl}-pyrimidin-4-yloxy)-benzothiazol-2-yl]-acetamide]	243.6 to 245.7
CC(=O)Nc1nc2c(Oc3cc(N4CCN([C@H](C)c5ccc(F)cc5)CC4)ncn3)cccc2s1 [Example 22, N-[4-(6-{4-[(1R)-1-(4-Fluoro-phenyl)-ethyl]-piperazine1-yl}-pyrimidin-4-yloxy)-benzothiazol-2-yl]-acetamide]	243.8 to 245.9
C[C@@H](c1ccc(F)cc1)N1CCN(c2cc(Oc3cccc4ccc(N)nc34)ncn2)CC1 [Example 24, 8-(6-{4-[(1S)-(4-Fluoro-phenyl)-ethyl]-piperazine-1-yl}-pyrimidin-4-yloxy)-quinolin-2-ylamine]	167
C[C@H](c1ccc(F)cc1)N1CCN(c2cc(Oc3cccc4[nH]c(=O)c(N)nc34)ncn2)CC1 [Example 26, 3-Amino-5-(6-{4-[(1R)-1-(4-fluoro-phenyl)-ethyl]-piperazin-1-yl}-pyrimidin-4-yloxy)-1H-quinoxalin-2-one]	292.2 to 293.9
C[C@@H](c1ccc(F)cc1)N1CCN(c2cc(Oc3cccc4[nH]c(=O)c(N)nc34)ncn2)CC1 [Example 27, 3-Amino-5-(6-{4-[(1S)-1-(4-fluoro-phenyl)-ethyl]-piperazin-1-yl}-pyrimidin-4-yloxy)-1H-quinoxalin-2-one]	294.5 to 295.3
CC(c1ccc(F)cc1)N1CCN(c2cc(Oc3cccc4sc(N)nc34)ncn2)CC1 (stereo not shown) [Example 52, 4-(6-(4-(1-(4-Fluorophenyl)ethyl)piperazin-1-yl)pyrimidin-4-yloxy)benzo[d]thiazol-2-amine]	222
C[C@@H](c1ccc(F)cc1)N1CCN(c2cc(Oc3cccc4ncc(N)nc34)ncn2)CC1 [Example 54, (S)-8-(6-(4-(1-(4-Fluorophenyl)ethyl)piperazin-1-yl)pyrimidin-4-yloxy)quinoxalin-2-amine]	114
C[C@H](c1ccc(F)cc1)N1CCN(c2cc(Oc3cccc4ncc(N)nc34)ncn2)CC1 [Example 55, (R)-8-(6-(4-(1-(4-Fluorophenyl)ethyl)piperazin-1-yl)pyrimidin-4-yloxy)quinoxalin-2-amine]	118
C[C@H](c1ccc(F)cc1)N1CCN(c2cc(Oc3cc(F)cc4[nH]c(=O)c(N)nc34)ncn2)CC1 [Example 57, (R)-3-Amino-7-fluoro-5-(6-(4-(1-(4-fluorophenyl)ethyl)piperazin-1-yl)pyrimidin-4-yloxy)quinoxalin-2(1H)-one]	315
C[C@@H](c1ccc(F)cc1)N1CCN(c2cc(Oc3cc(F)cc4[nH]c(=O)c(N)nc34)ncn2)CC1 [Example 58, (S)-3-Amino-7-fluoro-5-(6-(4-(1-(4-fluorophenyl)ethyl)piperazin-1-yl)pyrimidin-4-yloxy)quinoxalin-2(1H)-one]	288
C[C@H](c1ccc(F)cc1)N1CCN(c2cc(Oc3cccc4c3nc(N)c(=O)n4C)ncn2)CC1 [Example 59, (R)-3-Amino-5-(6-(4-(1-(4-fluorophenyl)ethyl)piperazin-1-yl)pyrimidin-4-yloxy)-1-methylquinoxalin-2(1H)-one]	256
CC(c1ccc(F)cc1)N1CCN(c2cc(Oc3cccc4[nH]c(=O)ccc34)ncn2)CC1 (stereo not shown) [Example 61, 5-(6-(4-(1-(4-Fluorophenyl)ethyl)piperazin-1-yl)pyrimidin-4-yloxy)quinoline-2(1H)-one]	242.2
CC(=O)Nc1nc2c(Oc3cc(N4CCN(C(C)c5ccc(F)cc5)CC4)ncn3)cccc2o1 (stereo not shown) [Example 66, N-(4-(6-(4-(1-(4-Fluorophenyl)ethyl)piperazin-1-yl)pyrimidin-4-yloxy)benzo[d]oxazol-2-yl)acetamide]	199.8
CC(=O)Nc1ccc2cccc(Oc3cc(N4CCN([C@H](C)c5ccc(F)cc5)CC4)ncn3)c2n1 [Example 69, (R)-N-(8-(6-(4-(1-(4-Fluorophenyl)ethyl)piperazin-1-yl)pyrimidin-4-yloxy)quinolin-2-yl)acetamide]	134
CC(c1ccc(F)cc1)N1CCN(c2cc(Oc3cccc4ccncc34)ncn2)CC1 (stereo not shown) [Example 70, 8-(6-(4-(1-(4-Fluorophenyl)ethyl)piperazin-1-yl)pyrimidin-4-yloxy)isoquinoline]	114
CC(c1ccc(F)cc1)N1CCN(c2cc(Oc3cccc4c3NCC(=O)N4)ncn2)CC1 (stereo not shown) [Example 71, 5-(6-(4-(1-(4-Fluorophenyl)ethyl)piperazin-1-yl)pyrimidin-4-yloxy)-3,4-dihydroquinoxalin-2-(1H)-one]	221
CC(c1ccc(F)cc1)N1CCN(c2cc(Oc3cccc4c(=O)[nH]ccc34)ncn2)CC1 (stereo not shown) [Example 72, 5-(6-(4-(1-(4-Fluorophenyl)ethyl)piperazin-1-yl)pyrimidin-4-yloxy)isoquinolin-1(2H)-one]	249
